Legend:
[1] = biological target: T1, rSAL3 (Staphylococcus aureus lipase 3, SAL3) (Staphylococcus aureus, UniProt A0A0H2XHH9); assay: LC-MS/MS loss of OAG without oleic acid release; also protein lipid overlay binding; format: biochemical; details: 2 h, 37 C, PBS; 2 ug/mL OAG; hydrolysis at the sn-2 acetate inferred
T1 construct: gene SAUSA300_0641

[2] = biological target: T1, rSAL3 (Staphylococcus aureus lipase 3, SAL3); assay: p-nitrophenol release at […] nm; format: biochemical; details: 2 mM ester, 100 mM Tris HCl, 100 mM NaCl, pH 7, 37 C

T1 sequence (A0A0H2XHH9 entry or part of it): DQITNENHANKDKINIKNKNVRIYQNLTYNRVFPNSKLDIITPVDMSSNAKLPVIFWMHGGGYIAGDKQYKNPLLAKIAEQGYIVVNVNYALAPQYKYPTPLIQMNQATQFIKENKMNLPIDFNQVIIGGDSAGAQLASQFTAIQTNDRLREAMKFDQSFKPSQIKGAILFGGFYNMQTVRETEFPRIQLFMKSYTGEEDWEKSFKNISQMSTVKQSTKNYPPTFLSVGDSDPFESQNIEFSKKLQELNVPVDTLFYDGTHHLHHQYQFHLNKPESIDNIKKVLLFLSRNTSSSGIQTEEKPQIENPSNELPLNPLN

Row | Structure (SMILES) | LC-MS/MS loss of OAG without oleic acid release; also protein lipid overlay bind [1] | specific activity [2]
1 | CCCCCCCC/C=C\CCCCCCCC(=O)OCC(CO)OC(C)=O (centres unmarked) [1-oleoyl 2-acetyl glycerol] | marked reduction in the substrate only in reactions containing WT rSAL3 | –
2 | CCCC(=O)Oc1ccc([N+](=O)[O-])cc1 [pNP-C4, paranitrophenol butyrate] | – | Alanine substitution mutations introduced in rSAL3MUT abolished the activity against pNP-C4
